In paper PMC9797021 (ACS applied bio materials, 2022):

Key:
[1] = tested on: SARS-CoV-2 spike protein, S1 subunit; format: binding; details: pH 7.4
SARS-CoV-2 RBD = details: cited from earlier work

Row | Substance | SPR angle shift of ACE2/spike protein binding [1] [degrees] | affinity compared with full-length ACE2 binding to RBD (SARS-CoV-2 RBD)
1 | ACE2 | 0.147±0.009 | –
2 | residues 21–43 of the human ACE2 α 1-helix | – | comparable to that of the full-length ACE2 binding to RBD
